Data: publication PMC3772838, “Preclinical Development of a Novel Class of CXCR4 Antagonist Impairing Solid Tumors Growth and Metastases” (PLoS ONE, 2013)

Tests used:
[1] = system: SN12C-EGFP renal cancer cells; test: SN12C-pEGFP subcutaneous xenograft tumor growth; type: in vivo, CD1 nude mice; details: IP 10 days, peptides 2 mg/kg, AMD3100 1.25 mg/kg; measured a week later by fluorescence stereomicroscope; control 65.97±35.1; average
Description: (§1) All mice were obtained from Harlan (Bar Harbor, ME, USA) and their care was in accord with institutional guidelines. Twenty-five 6-8-week-old female C57BL/6 mice were inoculated into the tail vein with 5×10^5 B16–CXCR4 cells pre-treated for 30 minutes with peptide S (10 µM), peptide R (10 µM), peptide I (10 µM), or AMD3100 (10 µM). Six hours later intraperitoneal (IP) treatment started with AMD3100 (1.25 mg/kg) or each peptide (2 mg/kg) in sterile PBS once a day for 10 days. A week later the mice were sacrificed. The experiment was repeated three times. The lung metastases assay was also conducted with K7M2 murine osteosarcoma cells. Twenty-five 6-8-week-old female Balb/c mice were injected via tail vein with 2.5×10^5 K7M2 cells pre-treated for 30 minutes with AMD3100 (10 µM), peptide S (10 µM), peptide R (10 µM), peptide I (10 µM) and animals were treated IP daily for 15 days with 2.5 mg/kg for AMD3100 group and 10 mg/kg for each peptide groups. A week later the mice were sacrificed. Xenograft tumor growth was evaluated using pEGFP-SN12C cells in exponential growth phase subcutaneously injected into the right flank of twenty-five 6-8-week-old female CD1 nude mice. 2×10^6 SN12C-pEGFP were injected in the right flank of each mouse and treated with AMD3100 (1.25 mg/kg) and peptides (2 mg/kg) for 10 days ip. A week later mice were euthanized and tumor volume evaluated through Leica MacroFluo fluorescence stereomicroscope (Leica microsystem, Houston, TX). The experiment was repeated three times. The Istituto Nazionale per lo Studio e la Cura dei Tumori, Fondazione Giovanni Pascale Independent Etical Comettee approved the study (CEI/600/12).
6 to 8-week-old female CD1 nude mice were injected subcutaneously with 2×10^6 pEGFP-SN12C cells pre-treated with 10 µM AMD3100 or 10 µM of each peptide. Beginning the following day mice were further treated intraperitoneally for 10 days with 1.25 mg/kg AMD3100 or 2 mg/kg of peptides R, I or S. A week later mice were euthanized and tumor volume evaluated directly from the flank of mice using a Leica MacroFluo fluorescence stereomicroscope (Leica microsystem, Houston, TX) (A). The experiments were repeated three times. B. SN12C-PEGFP cells migration toward CXCL12 in the presence of AMD3100 or Peptide R, S and I.

P-ERK1/2 = test: CXCL12-induced p-ERK induction (immunoblotting); type: cell-based, human; details: PES43 cells serum-starved, CXCL12 100 ng/ml, after 5 minutes
Description: Cells were homogenized in lysis buffer (40 mM Hepes pH 7,5, 120 mM NaCl, 5 mM MgCl2, 1 mM EGTA, 0,5 mM EDTA, 1% Triton X-100) containing protease (Complete Tablets- EDTA-free, Roche) and phosphatase inhibitors (20 mM α-glycerol-3-phosphate, 2,5 mM Na-pyrophosphate). The following primary antibodies were used: anti-p-ERK (sc7383, Santa Cruz Biotechnology, Inc., Santa Cruz, CA, USA) and anti-ERK2 (sc 154G, Santa Cruz Biotechnology CA, USA). P-Erk induction was plotted as ratio P-Erk in the presence of CXCL12 (100 ng/ml)/P-Erk in serum free.
(§2) Experiments were conducted using PES43 cells. (A) Migration was assayed in 24-well Transwell chambers using inserts with 8-µm pore membrane. […] Migrated cells on the lower surface were fixed, stained with H&E and counted microscopically. The results are expressed as the migration index relative to migration in presence of BSA alone. […] Images were acquired with OKO Time Lapse. […] PES43 cells were serum-starved and incubated with CXCL12 (100 ng/ml) alone or in presence of AMD3100/peptides. Each peptide was tested in at least three different experiments. Double tailed T-Test was used for statistical analyses. Differences were considered significant at P<0.05 compared to control.
PES43 cell lines were serum starved for 16 hours. […] (TIF) Click here for additional data file.

[2] = system: B16-CXCR4 murine melanoma cells; test: B16-CXCR4 melanoma lung metastases model; type: in vivo, C57BL/6 mice; details: cells pre-treated 30 min with 10 µM, IP once a day for 10 days, peptides 2 mg/kg, AMD3100 1.25 mg/kg
Description: as §1
(A) B16-CXCR4 tumor cells pre-treated for 30 minutes with AMD3100 (10 µM), peptide R (10 µM), peptide I (10 µM), or peptide S (10 µM) were inoculated into the tail vein of C57/B female mice and the mice were further treated intraperitoneally for 10 days with 1.25 mg/kg AMD3100, or 2 mg/kg peptide R, peptide I or peptide S. Gross examination of representative lungs; (B) Graphical representation of the number of lung metastases in treated mice. Double tailed T-Test was used for statistical analyses. The experiments were repeated three times.

CXCR4 [3] = test: CXCL12-induced calcium mobilization assay (Fluo-3 AM); type: cell-based, human; details: CCRF-CEM cells, 10 µM peptide, percent of fluorescence with CXCL12 alone; at least three experiments
Description: For the calcium efflux studies a 2 mg/mL stock solution of Fluo-3 acetoxymethylester (Invitrogen, Carlsbad, CA) in anhydrous DMSO was used. […] CCRF–CEM cells were resuspended in cell loading buffer (PBS, 1% FCS, 1 mmol/L MgCl2, and 1 mmol/L CaCl2) at 5×10^5 cells/mL. Fluo-3AM and Pluronic acid were added to each sample to increase Fluo-3AM solubility and improve dye loading into the cells. Baseline calcium efflux was established, then chemokines were added as indicated and chemokine-induced calcium efflux was measured.
(§3) (A) The amount of peptides or AMD3100 bound was assessed indirectly by flow cytometry using the PE-labelled anti-CXCR4 antibody (clone 12G5). Results are expressed as the percent antibody bound. (B) The Ca^2+ influx assay was performed using CCRF-CEM cells and Fluo-3 AM calcium indicator. CCRF-CEM cells were incubated 30 minutes at 37°C with Fluo-3 AM and 15 minutes with AMD3100 (10 µM)/peptides (10 µM) and then treated with CXCL12. Results are expressed as the percent of Fluo-3 AM fluorescence in presence of CXCL12 alone. Each peptide was tested in at least three different experiments. Double tailed T-Test was used for statistical analyses. Differences were considered significant at P<0.05 compared to control. Control (CTRL).

[4] = system: PES43 human melanoma cells; test: CXCL12-dependent Transwell migration of PES43 cells; type: cell-based; details: 100 ng/mL CXCL12 in lower chamber, 16 h, tested 10 nM, 100 nM, 1 µM, 10 µM
Description: (§4) Migration was assayed in 24-well Transwell chambers (Corning Inc., Corning, NY) using inserts with an 8-µm pore membrane. Membranes were precoated with collagen (human collagen type I/III) and fibronectin (20 µg/mL each). […] After 16 h incubation, cells on the upper surface of the filter were removed using a cotton wool swab; migration of cells in migration media alone was compared with migration in media containing CXCL12. The cells were counted in ten different fields (original magnification ×40). The migration index was defined as the ratio between migrating cells in the experimental group and migrated cells in the control group. For the wound closure assay, tested cells were allowed to reach confluence in six-well plates containing serum-depleted growth medium and scratched with pipette tips to make wounds. The wound closure was observed microscopically 6 hours post-wounding (OKO Time Lapse).
as §2

CXCR4 [5] = test: Competition with 12G5 anti-CXCR4 antibody binding (flow cytometry); design: species or system human; details: CCRF-CEM cells, 10 µM peptide, 30 min pre-incubation at 37°C, PE-labelled 12G5, flow cytometry; at least three experiments
Description: (§5) CXCR4 binding was evaluated as previously described. Briefly 5×10^5 CCRF–CEM cells were pre-incubated with 10 µM peptides or AMD3100 in binding buffer (PBS 1× plus 0.2% BSA and 0.1% NaN3) for 30 minutes at 37°C, 5% CO2 and then labeled for 30 minutes with anti-CXCR4 PE-antibody (FAB170P, clone 12G5, R&D Systems, Minneapolis, MN, USA). The cells were analyzed by FACS Canto II cytofluorometer (Becton Dickinson Immunocytometry Systems, Mountain View, CA, USA).
as §3

[6] = system: PES43 human melanoma cells; test: CXCL12-mediated wound closure assay; type: cell-based; details: 6 hours post-wounding
Description: as §4, §2

CXCR3 = test: Anti-CXCR3 antibody (clone 1C6/CXCR3) binding in CXCR3 overexpressing cells; design: species or system human; details: COLO205 cells; peptides 10 µM, CXCL11 100 nM, 30 min pre-incubation; Figure S3
Description: [The procedure below names another target; the source says it served here with some conditions changed.] as §5
(§6) Fluo-3AM and Pluronic acid were added to each sample to increase Fluo-3AM solubility and improve dye loading into the cells. (TIF) Click here for additional data file.

CXCR7 = test: Anti-CXCR7 antibody (clone 11G8) binding in CXCR7 overexpressing cells; design: species or system human; details: MCF-7 cells; peptides 10 µM, CXCL11 100 nM, 30 min pre-incubation; Figure S3
Description: [The procedure below names another target; the source says it served here with some conditions changed.] as §5, §6

`c1cc(CN2CCCNCCNCCCNCC2)ccc1CN1CCCNCCNCCCNCC1` [AMD3100, reference compound] was tested, and the “tumor volume of SN12C-GFP xenograft” value [1] was 35.53±10.42 mm^3, the “CXCL12-mediated p-ERK induction” value (P-ERK1/2) was “reduced” and the “fold reduction of the number of lung metastases vs control” value [2] was 5.6 fold. For the same compound, the “number of lung metastases” value ([2]; control 8.4±3.49, average) was 1.5±2.9.
With “Arg-Ala-[Cys-Arg-Tyr-Trp-Cys] [Peptide T]” the “CXCL12-induced calcium efflux (Fluo-3 AM fluorescence)” value (CXCR4 [3]) was 33.65 % of control, the “CXCL12-mediated p-ERK induction” value (P-ERK1/2) was “not” and the “concentration at which CXCL12-dependent migration was inhibited” value [4] was no more than 10 nM. The “association of the 12G5-CXCR4 antibody to the receptor” value (CXCR4 [5]) was 22 % of control and the CXCL12-mediated wound healing [6] was “delayed”.
In the case of “CXCL11: specific ligand (chemokine) that inhibited antibody binding to CXCR3 or CXCR7”, the “binding to CXCR3 (anti-CXCR3 antibody)” value (CXCR3) is reported as “inhibited” and the “binding to CXCR7 (anti-CXCR7 antibody)” value (CXCR7) is reported as “inhibited”.
